Measured values published in ChEMBL document CHEMBL3991601, “The target landscape of clinical kinase drugs” (Science, 2017).
Active and inactive are the calls of the source. Rule as the data show it, for most assays here: actives have a measured Kd and inactives only a lower limit.
Also: in the data inactive means no Kd found up to 30 µM.

These compounds were tested against Non-receptor tyrosine-protein kinase TYK2 (Homo sapiens, UniProt P29597).
Chain of Non-receptor tyrosine-protein kinase TYK2 (P29597 whole entry): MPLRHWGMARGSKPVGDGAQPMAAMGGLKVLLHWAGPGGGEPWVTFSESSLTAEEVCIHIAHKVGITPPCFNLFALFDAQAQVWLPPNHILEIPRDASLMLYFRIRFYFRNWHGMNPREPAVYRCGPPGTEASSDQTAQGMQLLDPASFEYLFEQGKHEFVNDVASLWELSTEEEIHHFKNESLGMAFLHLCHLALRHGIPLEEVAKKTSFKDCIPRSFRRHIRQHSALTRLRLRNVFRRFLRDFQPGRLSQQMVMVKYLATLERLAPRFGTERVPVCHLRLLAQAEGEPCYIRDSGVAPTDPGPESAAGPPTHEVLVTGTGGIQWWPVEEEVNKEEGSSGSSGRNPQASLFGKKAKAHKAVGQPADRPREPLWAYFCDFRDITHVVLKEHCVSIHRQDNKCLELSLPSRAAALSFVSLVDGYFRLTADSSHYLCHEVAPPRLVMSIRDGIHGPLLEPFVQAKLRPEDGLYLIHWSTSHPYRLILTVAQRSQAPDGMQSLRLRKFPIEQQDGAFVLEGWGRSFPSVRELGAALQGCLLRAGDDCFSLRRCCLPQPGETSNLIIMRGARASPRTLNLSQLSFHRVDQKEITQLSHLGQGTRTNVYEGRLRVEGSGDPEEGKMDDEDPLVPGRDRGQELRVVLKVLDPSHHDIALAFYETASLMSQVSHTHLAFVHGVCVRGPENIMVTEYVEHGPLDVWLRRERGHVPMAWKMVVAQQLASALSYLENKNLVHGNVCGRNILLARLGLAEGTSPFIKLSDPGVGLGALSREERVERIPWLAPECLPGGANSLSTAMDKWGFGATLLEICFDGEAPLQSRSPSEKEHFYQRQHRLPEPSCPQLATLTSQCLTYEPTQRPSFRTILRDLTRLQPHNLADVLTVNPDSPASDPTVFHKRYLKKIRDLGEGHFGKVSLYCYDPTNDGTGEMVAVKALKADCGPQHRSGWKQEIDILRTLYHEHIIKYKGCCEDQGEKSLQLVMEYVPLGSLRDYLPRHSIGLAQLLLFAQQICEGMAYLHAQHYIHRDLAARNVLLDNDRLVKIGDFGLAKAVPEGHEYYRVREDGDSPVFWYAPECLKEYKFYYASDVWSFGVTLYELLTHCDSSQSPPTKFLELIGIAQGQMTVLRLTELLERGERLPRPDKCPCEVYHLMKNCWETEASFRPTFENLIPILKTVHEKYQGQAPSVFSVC
With CN1CC[C@@H](c2c(O)cc(O)c3c(=O)cc(-c4ccccc4Cl)oc23)[C@@H]1CO the Kd was > 30 µM (inactive). With Cc1cc(-c2cc(O)ccc2Cl)cc2nnc(Nc3ccc(OCCN4CCCC4)cc3)nc12 the Kd was 0.0007 µM (active). For CCN1CCN(Cc2ccc(-c3cc4c(N[C@H](C)c5ccccc5)ncnc4[nH]3)cc2)CC1 [AEE-788], the Kd was > 30 µM (inactive).

Each compound was assayed against MAP kinase-activated protein kinase 2 (Homo sapiens, UniProt P49137).
Chain of MAP kinase-activated protein kinase 2 (P49137 whole entry): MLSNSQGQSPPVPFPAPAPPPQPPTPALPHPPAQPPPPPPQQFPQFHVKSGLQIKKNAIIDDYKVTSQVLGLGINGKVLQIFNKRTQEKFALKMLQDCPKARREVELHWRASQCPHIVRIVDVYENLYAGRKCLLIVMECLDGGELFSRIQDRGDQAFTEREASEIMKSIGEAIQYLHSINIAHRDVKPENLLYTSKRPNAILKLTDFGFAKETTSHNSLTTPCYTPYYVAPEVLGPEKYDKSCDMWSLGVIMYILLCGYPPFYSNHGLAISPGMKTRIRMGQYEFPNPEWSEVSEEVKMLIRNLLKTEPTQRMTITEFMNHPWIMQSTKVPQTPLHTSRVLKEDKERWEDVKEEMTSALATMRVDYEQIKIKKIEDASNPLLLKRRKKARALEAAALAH
In the case of CN1CC[C@@H](c2c(O)cc(O)c3c(=O)cc(-c4ccccc4Cl)oc23)[C@@H]1CO, the Kd is reported as > 30 µM (inactive). With Cc1cc(-c2cc(O)ccc2Cl)cc2nnc(Nc3ccc(OCCN4CCCC4)cc3)nc12 the Kd was > 30 µM (inactive). With CCN1CCN(Cc2ccc(-c3cc4c(N[C@H](C)c5ccccc5)ncnc4[nH]3)cc2)CC1 [AEE-788] the Kd was > 30 µM (inactive).

These compounds were tested against T1, Serine/threonine-protein kinase TAO1 (Homo sapiens, UniProt Q7L7X3).
T1 sequence (Q7L7X3 whole entry): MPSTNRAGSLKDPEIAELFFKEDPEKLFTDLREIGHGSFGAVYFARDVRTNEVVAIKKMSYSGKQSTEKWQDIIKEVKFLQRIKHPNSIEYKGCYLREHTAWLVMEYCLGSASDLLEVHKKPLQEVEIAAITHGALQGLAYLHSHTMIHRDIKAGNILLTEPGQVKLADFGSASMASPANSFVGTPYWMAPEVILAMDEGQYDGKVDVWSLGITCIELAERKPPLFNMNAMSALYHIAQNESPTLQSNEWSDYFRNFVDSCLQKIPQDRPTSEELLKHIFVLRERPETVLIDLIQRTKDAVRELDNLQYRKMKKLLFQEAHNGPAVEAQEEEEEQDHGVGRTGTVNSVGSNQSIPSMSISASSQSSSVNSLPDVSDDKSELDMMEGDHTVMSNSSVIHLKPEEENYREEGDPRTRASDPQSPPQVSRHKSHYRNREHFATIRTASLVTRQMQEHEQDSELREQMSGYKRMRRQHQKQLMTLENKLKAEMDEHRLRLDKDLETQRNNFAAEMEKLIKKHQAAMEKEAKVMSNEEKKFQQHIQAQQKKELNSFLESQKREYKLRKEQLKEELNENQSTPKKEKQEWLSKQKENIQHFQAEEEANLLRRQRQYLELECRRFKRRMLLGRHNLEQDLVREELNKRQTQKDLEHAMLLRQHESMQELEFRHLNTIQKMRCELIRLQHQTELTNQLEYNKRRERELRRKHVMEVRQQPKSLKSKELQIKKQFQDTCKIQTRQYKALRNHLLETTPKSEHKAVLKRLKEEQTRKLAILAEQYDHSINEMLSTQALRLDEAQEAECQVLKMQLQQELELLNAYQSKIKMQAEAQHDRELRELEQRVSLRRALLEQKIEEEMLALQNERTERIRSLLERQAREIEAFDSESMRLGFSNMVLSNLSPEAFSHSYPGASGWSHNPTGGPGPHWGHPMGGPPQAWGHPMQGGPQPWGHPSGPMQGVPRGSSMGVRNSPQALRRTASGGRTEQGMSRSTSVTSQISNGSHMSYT
CN1CC[C@@H](c2c(O)cc(O)c3c(=O)cc(-c4ccccc4Cl)oc23)[C@@H]1CO was tested, and the Kd was > 30 µM (inactive). In the case of Cc1cc(-c2cc(O)ccc2Cl)cc2nnc(Nc3ccc(OCCN4CCCC4)cc3)nc12, the Kd is reported as > 30 µM (inactive). For CCN1CCN(Cc2ccc(-c3cc4c(N[C@H](C)c5ccccc5)ncnc4[nH]3)cc2)CC1 [AEE-788], the Kd was > 30 µM (inactive).

The compounds below were run against ATP-dependent RNA helicase DDX3X (Homo sapiens, UniProt O00571).
Chain of ATP-dependent RNA helicase DDX3X (O00571 whole entry): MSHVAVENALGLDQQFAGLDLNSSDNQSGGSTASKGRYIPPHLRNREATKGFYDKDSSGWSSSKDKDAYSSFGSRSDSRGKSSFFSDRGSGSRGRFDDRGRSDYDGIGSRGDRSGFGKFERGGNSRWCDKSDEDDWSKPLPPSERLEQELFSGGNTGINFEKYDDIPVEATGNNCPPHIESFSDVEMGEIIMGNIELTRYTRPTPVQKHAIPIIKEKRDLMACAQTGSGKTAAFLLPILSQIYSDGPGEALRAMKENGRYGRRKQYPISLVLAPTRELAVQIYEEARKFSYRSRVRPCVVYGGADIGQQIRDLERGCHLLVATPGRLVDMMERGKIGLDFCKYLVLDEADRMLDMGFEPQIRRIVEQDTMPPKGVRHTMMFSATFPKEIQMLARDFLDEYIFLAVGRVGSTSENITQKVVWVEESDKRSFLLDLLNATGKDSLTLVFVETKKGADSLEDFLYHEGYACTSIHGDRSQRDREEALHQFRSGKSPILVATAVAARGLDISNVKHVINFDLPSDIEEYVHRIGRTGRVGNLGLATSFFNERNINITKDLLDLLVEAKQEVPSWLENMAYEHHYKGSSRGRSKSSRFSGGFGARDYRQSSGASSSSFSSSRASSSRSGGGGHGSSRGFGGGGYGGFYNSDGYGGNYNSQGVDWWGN
CN1CC[C@@H](c2c(O)cc(O)c3c(=O)cc(-c4ccccc4Cl)oc23)[C@@H]1CO was tested, and the Kd was > 30 µM (inactive). With Cc1cc(-c2cc(O)ccc2Cl)cc2nnc(Nc3ccc(OCCN4CCCC4)cc3)nc12 the Kd was > 30 µM (inactive). In the case of CCN1CCN(Cc2ccc(-c3cc4c(N[C@H](C)c5ccccc5)ncnc4[nH]3)cc2)CC1 [AEE-788], the Kd is reported as > 30 µM (inactive).

What follows are compounds tested against Ribosomal protein S6 kinase alpha-4 (Homo sapiens, UniProt O75676).
With CN1CC[C@@H](c2c(O)cc(O)c3c(=O)cc(-c4ccccc4Cl)oc23)[C@@H]1CO the Kd was > 30 µM (inactive). In the case of Cc1cc(-c2cc(O)ccc2Cl)cc2nnc(Nc3ccc(OCCN4CCCC4)cc3)nc12, the Kd is reported as > 30 µM (inactive). CCN1CCN(Cc2ccc(-c3cc4c(N[C@H](C)c5ccccc5)ncnc4[nH]3)cc2)CC1 [AEE-788] was tested, and the Kd was > 30 µM (inactive).

The compounds below were run against Mitogen-activated protein kinase kinase kinase 1 (Homo sapiens, UniProt Q13233).
With CN1CC[C@@H](c2c(O)cc(O)c3c(=O)cc(-c4ccccc4Cl)oc23)[C@@H]1CO the Kd was > 30 µM (inactive). Cc1cc(-c2cc(O)ccc2Cl)cc2nnc(Nc3ccc(OCCN4CCCC4)cc3)nc12 was tested, and the Kd was > 30 µM (inactive). For CCN1CCN(Cc2ccc(-c3cc4c(N[C@H](C)c5ccccc5)ncnc4[nH]3)cc2)CC1 [AEE-788], the Kd was > 30 µM (inactive).

What follows are compounds tested against STE20-like serine/threonine-protein kinase (Homo sapiens, UniProt Q9H2G2).
Chain of STE20-like serine/threonine-protein kinase (Q9H2G2 whole entry): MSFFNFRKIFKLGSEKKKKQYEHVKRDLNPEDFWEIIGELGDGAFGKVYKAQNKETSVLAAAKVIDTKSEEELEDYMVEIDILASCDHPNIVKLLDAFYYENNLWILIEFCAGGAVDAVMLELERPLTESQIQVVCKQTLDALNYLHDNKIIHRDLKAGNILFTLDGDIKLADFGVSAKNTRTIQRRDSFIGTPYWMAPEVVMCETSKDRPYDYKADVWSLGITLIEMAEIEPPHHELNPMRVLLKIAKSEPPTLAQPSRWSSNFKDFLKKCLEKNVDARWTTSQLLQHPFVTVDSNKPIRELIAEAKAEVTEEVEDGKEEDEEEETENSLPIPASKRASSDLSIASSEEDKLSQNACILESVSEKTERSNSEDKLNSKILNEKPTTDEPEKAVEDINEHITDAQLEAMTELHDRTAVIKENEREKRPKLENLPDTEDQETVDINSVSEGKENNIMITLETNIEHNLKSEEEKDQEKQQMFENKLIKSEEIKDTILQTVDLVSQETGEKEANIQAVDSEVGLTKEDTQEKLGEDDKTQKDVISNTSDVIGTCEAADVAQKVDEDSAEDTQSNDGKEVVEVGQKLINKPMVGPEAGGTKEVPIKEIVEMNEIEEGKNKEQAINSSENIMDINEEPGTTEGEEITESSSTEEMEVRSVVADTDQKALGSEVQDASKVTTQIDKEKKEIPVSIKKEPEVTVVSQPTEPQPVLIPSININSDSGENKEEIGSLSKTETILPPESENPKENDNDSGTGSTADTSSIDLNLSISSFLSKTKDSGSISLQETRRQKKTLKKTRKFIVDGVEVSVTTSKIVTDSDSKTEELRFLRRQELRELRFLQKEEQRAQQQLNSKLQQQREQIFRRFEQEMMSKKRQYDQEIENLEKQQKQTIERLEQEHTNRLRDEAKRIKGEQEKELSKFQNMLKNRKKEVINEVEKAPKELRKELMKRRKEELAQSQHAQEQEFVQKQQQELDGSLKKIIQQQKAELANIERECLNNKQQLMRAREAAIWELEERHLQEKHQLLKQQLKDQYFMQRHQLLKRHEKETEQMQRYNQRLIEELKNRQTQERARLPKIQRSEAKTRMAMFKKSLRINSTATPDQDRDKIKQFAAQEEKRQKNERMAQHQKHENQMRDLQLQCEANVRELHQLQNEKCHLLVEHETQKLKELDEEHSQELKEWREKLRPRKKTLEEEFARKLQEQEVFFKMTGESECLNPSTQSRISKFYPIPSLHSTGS
In the case of CN1CC[C@@H](c2c(O)cc(O)c3c(=O)cc(-c4ccccc4Cl)oc23)[C@@H]1CO, the Kd is reported as > 30 µM (inactive). Cc1cc(-c2cc(O)ccc2Cl)cc2nnc(Nc3ccc(OCCN4CCCC4)cc3)nc12 was tested, and the Kd was > 30 µM (inactive). In the case of CCN1CCN(Cc2ccc(-c3cc4c(N[C@H](C)c5ccccc5)ncnc4[nH]3)cc2)CC1 [AEE-788], the Kd is reported as 99.2 µM (active).

Each compound was assayed against T2, Mitogen-activated protein kinase kinase kinase 2 (Homo sapiens, UniProt Q9Y2U5).
T2 sequence (Q9Y2U5 whole entry): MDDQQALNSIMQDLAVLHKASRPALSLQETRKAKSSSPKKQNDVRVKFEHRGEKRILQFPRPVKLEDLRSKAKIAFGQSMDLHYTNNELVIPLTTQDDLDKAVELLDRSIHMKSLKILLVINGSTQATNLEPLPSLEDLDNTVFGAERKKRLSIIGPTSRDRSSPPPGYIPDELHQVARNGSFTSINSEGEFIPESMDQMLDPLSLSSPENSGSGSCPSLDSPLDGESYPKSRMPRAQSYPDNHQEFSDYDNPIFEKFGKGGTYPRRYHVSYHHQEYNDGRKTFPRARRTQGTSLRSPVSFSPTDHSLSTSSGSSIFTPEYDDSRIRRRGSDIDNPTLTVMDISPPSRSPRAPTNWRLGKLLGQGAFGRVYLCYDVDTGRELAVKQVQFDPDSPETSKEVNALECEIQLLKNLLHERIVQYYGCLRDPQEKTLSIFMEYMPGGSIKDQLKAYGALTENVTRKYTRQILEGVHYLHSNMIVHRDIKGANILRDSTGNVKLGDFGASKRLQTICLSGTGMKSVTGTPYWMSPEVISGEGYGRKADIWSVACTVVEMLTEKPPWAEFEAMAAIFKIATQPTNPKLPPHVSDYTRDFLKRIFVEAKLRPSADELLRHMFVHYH
CN1CC[C@@H](c2c(O)cc(O)c3c(=O)cc(-c4ccccc4Cl)oc23)[C@@H]1CO was tested, and the Kd was > 30 µM (inactive). In the case of Cc1cc(-c2cc(O)ccc2Cl)cc2nnc(Nc3ccc(OCCN4CCCC4)cc3)nc12, the Kd is reported as > 30 µM (inactive). CCN1CCN(Cc2ccc(-c3cc4c(N[C@H](C)c5ccccc5)ncnc4[nH]3)cc2)CC1 [AEE-788] was tested, and the Kd was > 30 µM (inactive).

What follows are compounds tested against Atypical kinase COQ8A, mitochondrial (Homo sapiens, UniProt Q8NI60).
Chain of Atypical kinase COQ8A, mitochondrial (Q8NI60 whole entry): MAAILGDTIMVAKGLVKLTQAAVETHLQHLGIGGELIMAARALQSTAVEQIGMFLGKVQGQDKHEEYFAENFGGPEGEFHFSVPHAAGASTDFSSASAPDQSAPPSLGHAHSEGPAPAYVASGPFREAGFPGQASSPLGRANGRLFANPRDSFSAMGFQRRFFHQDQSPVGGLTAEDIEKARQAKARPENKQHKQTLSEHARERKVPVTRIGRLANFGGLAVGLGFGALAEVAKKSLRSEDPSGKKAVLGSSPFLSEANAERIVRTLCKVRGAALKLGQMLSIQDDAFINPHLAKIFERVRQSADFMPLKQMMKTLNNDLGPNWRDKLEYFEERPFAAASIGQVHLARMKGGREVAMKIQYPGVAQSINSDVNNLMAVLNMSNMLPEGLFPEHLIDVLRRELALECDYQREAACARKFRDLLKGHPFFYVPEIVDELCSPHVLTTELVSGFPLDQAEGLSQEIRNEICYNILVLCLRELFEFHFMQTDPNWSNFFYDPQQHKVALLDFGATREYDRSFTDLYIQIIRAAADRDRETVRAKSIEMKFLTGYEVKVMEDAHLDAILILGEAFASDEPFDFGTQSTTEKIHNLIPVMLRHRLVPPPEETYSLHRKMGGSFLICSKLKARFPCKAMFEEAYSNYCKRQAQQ
CN1CC[C@@H](c2c(O)cc(O)c3c(=O)cc(-c4ccccc4Cl)oc23)[C@@H]1CO was tested, and the Kd was > 30 µM (inactive). With Cc1cc(-c2cc(O)ccc2Cl)cc2nnc(Nc3ccc(OCCN4CCCC4)cc3)nc12 the Kd was > 30 µM (inactive). In the case of CCN1CCN(Cc2ccc(-c3cc4c(N[C@H](C)c5ccccc5)ncnc4[nH]3)cc2)CC1 [AEE-788], the Kd is reported as > 30 µM (inactive).

These compounds were tested against Tyrosine-protein kinase Fer (Homo sapiens, UniProt P16591).
For CN1CC[C@@H](c2c(O)cc(O)c3c(=O)cc(-c4ccccc4Cl)oc23)[C@@H]1CO, the Kd was > 30 µM (inactive). With Cc1cc(-c2cc(O)ccc2Cl)cc2nnc(Nc3ccc(OCCN4CCCC4)cc3)nc12 the Kd was > 30 µM (inactive). CCN1CCN(Cc2ccc(-c3cc4c(N[C@H](C)c5ccccc5)ncnc4[nH]3)cc2)CC1 [AEE-788] was tested, and the Kd was > 30 µM (inactive).

Each compound was assayed against Deoxycytidine kinase (Homo sapiens, UniProt P27707).
Chain of Deoxycytidine kinase (P27707 whole entry): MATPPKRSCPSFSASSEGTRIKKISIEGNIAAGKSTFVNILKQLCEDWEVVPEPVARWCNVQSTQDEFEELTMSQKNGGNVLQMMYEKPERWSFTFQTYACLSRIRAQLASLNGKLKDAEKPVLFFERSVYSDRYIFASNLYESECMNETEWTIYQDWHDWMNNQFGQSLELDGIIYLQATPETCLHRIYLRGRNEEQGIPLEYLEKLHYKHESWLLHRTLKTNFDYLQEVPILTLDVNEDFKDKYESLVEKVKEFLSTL
CN1CC[C@@H](c2c(O)cc(O)c3c(=O)cc(-c4ccccc4Cl)oc23)[C@@H]1CO was tested, and the Kd was > 30 µM (inactive). Cc1cc(-c2cc(O)ccc2Cl)cc2nnc(Nc3ccc(OCCN4CCCC4)cc3)nc12 was tested, and the Kd was > 30 µM (inactive). In the case of CCN1CCN(Cc2ccc(-c3cc4c(N[C@H](C)c5ccccc5)ncnc4[nH]3)cc2)CC1 [AEE-788], the Kd is reported as > 30 µM (inactive).

Each compound was assayed against Tyrosine-protein kinase Lyn (Homo sapiens, UniProt P07948).
Chain of Tyrosine-protein kinase Lyn (P07948 whole entry): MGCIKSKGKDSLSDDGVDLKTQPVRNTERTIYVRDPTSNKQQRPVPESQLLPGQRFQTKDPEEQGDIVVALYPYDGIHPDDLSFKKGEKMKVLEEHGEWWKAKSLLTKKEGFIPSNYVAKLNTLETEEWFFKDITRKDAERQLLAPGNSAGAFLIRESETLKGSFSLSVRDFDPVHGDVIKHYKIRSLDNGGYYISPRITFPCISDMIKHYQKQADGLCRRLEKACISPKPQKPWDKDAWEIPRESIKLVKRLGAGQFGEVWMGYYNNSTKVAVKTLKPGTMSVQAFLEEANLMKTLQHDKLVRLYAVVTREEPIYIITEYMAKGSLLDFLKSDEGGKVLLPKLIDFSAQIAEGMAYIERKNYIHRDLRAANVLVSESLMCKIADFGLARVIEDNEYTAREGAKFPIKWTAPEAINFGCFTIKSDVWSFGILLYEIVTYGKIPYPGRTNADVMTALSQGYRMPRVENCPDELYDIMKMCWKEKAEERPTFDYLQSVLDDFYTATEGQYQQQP
CN1CC[C@@H](c2c(O)cc(O)c3c(=O)cc(-c4ccccc4Cl)oc23)[C@@H]1CO was tested, and the Kd was > 30 µM (inactive). In the case of Cc1cc(-c2cc(O)ccc2Cl)cc2nnc(Nc3ccc(OCCN4CCCC4)cc3)nc12, the Kd is reported as > 30 µM (inactive). In the case of CCN1CCN(Cc2ccc(-c3cc4c(N[C@H](C)c5ccccc5)ncnc4[nH]3)cc2)CC1 [AEE-788], the Kd is reported as > 30 µM (inactive).

Each compound was assayed against T3, ATP-dependent 6-phosphofructokinase, platelet type (Homo sapiens, UniProt Q01813).
T3 sequence (Q01813 whole entry): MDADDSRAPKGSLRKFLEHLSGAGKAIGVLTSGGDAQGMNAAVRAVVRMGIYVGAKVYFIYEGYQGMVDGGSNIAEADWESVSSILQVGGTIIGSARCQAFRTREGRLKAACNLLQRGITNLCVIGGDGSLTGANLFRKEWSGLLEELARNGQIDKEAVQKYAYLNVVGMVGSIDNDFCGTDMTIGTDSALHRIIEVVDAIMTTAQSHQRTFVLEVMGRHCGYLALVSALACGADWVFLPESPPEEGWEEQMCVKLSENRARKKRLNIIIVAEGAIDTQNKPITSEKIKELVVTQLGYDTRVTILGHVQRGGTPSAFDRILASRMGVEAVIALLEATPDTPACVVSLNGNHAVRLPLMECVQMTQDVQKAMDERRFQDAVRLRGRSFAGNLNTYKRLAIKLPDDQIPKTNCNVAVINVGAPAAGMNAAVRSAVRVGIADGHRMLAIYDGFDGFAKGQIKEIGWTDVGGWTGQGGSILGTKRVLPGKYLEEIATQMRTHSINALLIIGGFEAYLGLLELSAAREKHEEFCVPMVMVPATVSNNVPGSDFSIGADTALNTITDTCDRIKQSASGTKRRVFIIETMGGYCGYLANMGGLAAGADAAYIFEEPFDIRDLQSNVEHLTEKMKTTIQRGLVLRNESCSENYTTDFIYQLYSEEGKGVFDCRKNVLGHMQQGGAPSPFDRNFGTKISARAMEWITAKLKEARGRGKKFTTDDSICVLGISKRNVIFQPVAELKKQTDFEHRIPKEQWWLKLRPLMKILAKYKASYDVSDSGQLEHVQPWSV
For CN1CC[C@@H](c2c(O)cc(O)c3c(=O)cc(-c4ccccc4Cl)oc23)[C@@H]1CO, the Kd was > 30 µM (inactive). Cc1cc(-c2cc(O)ccc2Cl)cc2nnc(Nc3ccc(OCCN4CCCC4)cc3)nc12 was tested, and the Kd was > 30 µM (inactive). With CCN1CCN(Cc2ccc(-c3cc4c(N[C@H](C)c5ccccc5)ncnc4[nH]3)cc2)CC1 [AEE-788] the Kd was > 30 µM (inactive).
